Laboratory results taken from patent publication US4122179A, “Acid addition salts of vincamine and apovincamine” (priority 1976, dated 1978).

Experiments:
[1] = Solubility; type: physicochemical; conditions: qualitative; for solubility in alcohol: alcohol (ethyl alcohol)
[2] = Hematic levels at different times after oral administration (absorption); type: in vivo, Wistar rat; conditions: 100 mg/kg expressed as vincamine/apovincamine, 5% carboxymethyl cellulose suspension, 100 mg/kg
Protocol: (§1) For the compounds of the present invention a number of pharmacological and pharmacokinetic tests have been carried out. […] As regards the pharmacological and pharmacodynamic activity, it has been studied on the percent variations of the hematic flow, as recorded at the vertebral arteria in the dog after administration of the tested compounds. As regards the pharmacokinetic tests, the compounds were administered per oral route to the Wistar rat, and the hematic levels at different times from the administration were measured.
For the evaluation of the absorption, all the compounds have been orally administered at the dosage of 100 mg/kg, expressed as vincamine and apovincamine, in form of a suspension in a 5% carboxymethyl cellulose solution.
The absorption was determined by evaulating the hematic levels at the following times (minutes) : 0, 30, 120, 240, 480, 10 hours and 12 hours, in order also to assess the time from the administration (max conc.time) the maximum absorption occurred.
The vincamine and apovincamine concentrations were assessed by chromatographic method.
For the evaluation of the prolonged action of the salts and of the adducts of vincamine and apovincamine the following criterium was adopted; as derivatives having a long-acting effect, there are considered those which, 120 minutes after the administration, show hematic levels higher than those obtained with vincamine and apovincamine.

[3] = system: vertebral arteria; assay: Cerebral vasodilating activity: hematic flow at the vertebral arteria after i.v. administration; type: in vivo; conditions: i.v. (femoral vein), 5 mg/kg of vincamine/apovincamine, anesthetized dog, 4 animals per compound; 5 mg/kg
Protocol: as §1
The cerebral vasodilating activity was studied in the anestetized dog, by measuring, by means of Statham periarterial electromagnetic flowmeters, the hematic flow at the level of the […] which, in such animal species, constitutes the greatest blood supply to the brain.
The resuls are reported in the TABLE 2 (last column) as the percent variations of the flow measured at the level of the ledt vertebral arteria after the i.v. administration of the several compounds to be tested to groups of 4 animals for each compound. The results also confirm that the compounds of the invention are all endowed with a vasodilating activity at the level of the cerebral circulus, such an action being, for some compounds, much more remarkable than that of vincamine and apovincamine.

[4] = LD50 / acute toxicity, intraperitoneal route; type: in vivo; conditions: i.p.; for Toxicity (Gleason): Gleason class in words, classes not defined

Row | Compound | solubility in alcohol [1] | solubility in water [1] | Max. conc. time [2] [min] | % increase (percent variation of hematic flow, left vertebral arteria) [3] [%] | LD50 [4] [mg/kg] | Toxicity (Gleason) [4] | solubility in the common (organic) solvents [1]
1 | CC[C@]12CCCN3CCc4c(n(c5ccccc45)[C@@](O)(C(=O)OC)C1)[C@@H]32 [Example 7.a, Vincamine 3,5-dihydroxybenzoate] | insoluble | insoluble | 240 | 26.3 | 850 | modest | 
2 | CC[C@@]12C=C(C(=O)OC)n3c4c(c5ccccc53)CCN(CCC1)[C@H]42 [Example 7.b, Apovincamine 3,5-dihydroxybenzoate] | soluble | insoluble | 240 | 26.0 | 750 | modest | 
3 | CC[C@]12CCCN3CCc4c(n(c5ccccc45)[C@@](O)(C(=O)OC)C1)[C@@H]32 [Example 8.a, Vincamine p-toluensulfonate] | soluble | soluble | 480 | 25.1 | 1250 | light | 
4 | CC[C@@]12C=C(C(=O)OC)n3c4c(c5ccccc53)CCN(CCC1)[C@H]42 [Example 8.b, Apovincamine p-toluensulfonate] | soluble | insoluble | 480 | 29.0 | 900 | modest | 
5 | CC[C@]12CCCN3CCc4c(n(c5ccccc45)[C@@](O)(C(=O)OC)C1)[C@@H]32 [Example 9.a, Vincamine clofibrate (2-(p-chlorophenoxy)-2-methylpropionate)] | soluble | insoluble | 480 | 22.1 | 900 | modest | 
6 | CC[C@@]12C=C(C(=O)OC)n3c4c(c5ccccc53)CCN(CCC1)[C@H]42 [Example 9.b, Apovincamine clofibrate] | soluble | insoluble | 480 | 28.3 | 800 | light | 
7 | CC[C@]12CCCN3CCc4c(n(c5ccccc45)[C@@](O)(C(=O)OC)C1)[C@@H]32 [Example 10.a] | insoluble | insoluble | 240 | 27.9 | 1300 | light | 
8 | CC[C@@]12C=C(C(=O)OC)n3c4c(c5ccccc53)CCN(CCC1)[C@H]42 [Example 10.b, Apovincamine pivalate] | soluble | insoluble | 480 | 31.4 | 750 | modest | 
9 | CC[C@]12CCCN3CCc4c(n(c5ccccc45)[C@@](O)(C(=O)OC)C1)[C@@H]32 [Example 11.a, Vincamine 4-acetamidobutyrate] | insoluble | insoluble | 480 | 29.3 | 700 | modest | 
10 | CC[C@@]12C=C(C(=O)OC)n3c4c(c5ccccc53)CCN(CCC1)[C@H]42 [Example 11.b, Apovincamine 4-acetamidobutyrate] | insoluble | insoluble | 480 | 33.0 | 1500 | light | 
11 | CC[C@]12CCCN3CCc4c(n(c5ccccc45)[C@@](O)(C(=O)OC)C1)[C@@H]32 [Example 12.a, Vincamine furoate (furan-2-carboxylate)] | insoluble | insoluble | 120 | 24.8 | 800 | modest | 
12 | CC[C@]12CCCN3CCc4c(n(c5ccccc45)[C@@](O)(C(=O)OC)C1)[C@@H]32 [Example 13.a, Vincamine D(+)-camphorsulfonate] | poorly soluble | soluble | 60 | 30.1 | 1350 | light | insoluble
13 | CC[C@]12CCCN3CCc4c(n(c5ccccc45)[C@@](O)(C(=O)OC)C1)[C@@H]32 [Example 14.a, Vincamine L(+)-O,O-dibenzoyltartrate] | poorly soluble | poorly soluble | 60 | 29.6 | 950 | modest | insoluble
14 | CC[C@@]12C=C(C(=O)OC)n3c4c(c5ccccc53)CCN(CCC1)[C@H]42 [Example 14.b, Apovincamine L(+)-O,O-dibenzoyltartrate] | soluble |  | 120 | 31.0 | 1500 | light | 
15 | CC[C@@]12C=C(C(=O)OC)n3c4c(c5ccccc53)CCN(CCC1)[C@H]42 [Example 15.b, Apovincamine nicotinate] | insoluble | insoluble | 60 | 28.3 | 750 | modest | 
16 | CC[C@]12CCCN3CCc4c(n(c5ccccc45)[C@@](O)(C(=O)OC)C1)[C@@H]32 [Example 16.a, Vincamine acetylsalicylate] |  |  | 20 | 31.7 | 900 | modest | poorly soluble
17 | CC[C@@]12C=C(C(=O)OC)n3c4c(c5ccccc53)CCN(CCC1)[C@H]42 [Example 16.b, Apovincamine acetylsalicylate] | soluble | very little soluble | 60 | 40.1 | 750 | modest | 
18 | CC[C@]12CCCN3CCc4c(n(c5ccccc45)[C@@](O)(C(=O)OC)C1)[C@@H]32 [Example 18.a, Vincamine enanthate] |  |  | 60 | 27.7 | 750 | modest | insoluble
19 | CC[C@@]12C=C(C(=O)OC)n3c4c(c5ccccc53)CCN(CCC1)[C@H]42 [Example 18.b] | insoluble | insoluble | 120 | 33.1 | 1500 | light | 
20 | CC[C@]12CCCN3CCc4c(n(c5ccccc45)[C@@](O)(C(=O)OC)C1)[C@@H]32 [Example 19.a, Vincamine p-chlorophenoxyacetate] | soluble | insoluble | 480 | 22.0 | 750 | modest | insoluble
21 | CC[C@@]12C=C(C(=O)OC)n3c4c(c5ccccc53)CCN(CCC1)[C@H]42 [Example 19.b, Apovincamine p-chlorophenoxyacetate] |  | insoluble | 480 | 28.4 | 750 | modest | 
22 | CC[C@]12CCCN3CCc4c(n(c5ccccc45)[C@@](O)(C(=O)OC)C1)[C@@H]32 [Example 20.a, Vincamine theophylline-7-acetate] | soluble | insoluble | 60 | 24.5 | 700 | modest | insoluble
